Assay results taken from US11028099B2, “NRF2 activators” (GLAXOSMITHKLINE INTELLECTUAL PROPERTY DEVELOPMENT LIMITED, priority 2016, dated 2021).

What was measured:
[1] = target: T1, Kelch domain (321-609) of Keap1 / TAMRA-labeled NRF2 ETGE peptide (Homo sapiens, UniProt Q14145); test: NRF2-Keap1 FP assay (Keap1 Kelch fluorescence polarization); format: binding; conditions: Keap1 (321-609) 20 nM, Tamra labelled peptide 8 nM
T1 construct: the Kelch domain (321-609) of Keap1 is used
From the text: NRF2-Keap1 FP Assay One model for the NRF2-Keap1 interaction is through two binding sites in the Neh2 domain on NRF2. The two sites are referred to as the DLG binding motif (latch domain, uM affinity) and the ETGE binding motif (hinge domain, nM affinity). The Keap1 protein consists of an N-terminal region (NTR), a broad complex, tramtrack, and brick a brac domain (BTB), an intervening region (IVR), a double glycine repeat domain (DGR or Kelch), and a C-terminal region. The DLG and ETGE motifs of NRF2's Neh2 domain bind to the Kelch domain of Keap1 at different affinities. In the Keap1 Kelch fluorescence polarization (FP) assay, a TAMRA-labeled 16 mer peptide (AFFAQLQLDEETGEFL) containing the ETGE motif of NRF2 and the Kelch domain (321-609) of Keap1 is used. The assay determines if a compound interferes with the binding between Keap1 […] and the TAMRA-labeled peptide. Binding of TAMRA-labeled NRF2 peptide to Keap1 (321-609) results in a high FP signal. If a compound interferes with the binding between the peptide and the protein, it will cause the assay signal to decrease. Thus, assay signal is inversely proportional to binding inhibition. FP Assay:
100 nl of 100× compound dose response curves (serial 3-fold dilutions) in DMSO are stamped using an Echo liquid handling system (Labcyte) into 384-well low volume black assay plates (Greiner, #784076), with DMSO in columns 6 and 18. […] The plates are spun at 500 rpm for 1 min, incubated for 1 hr at room temperature, and read on an Analyst GT (Molecular Devices) equipped with excitation (530/25 nm) and emission (580/10 nm) filters designed for Tamra probes. […] Fluorescence measurements, represented as mP, are used in the transformation of the data. Compound activity is calculated based on percent inhibition, normalized against controls in the assay (Control 1 contains the Tamra peptide and Keap1 (321-609) together (0% response) and control 2 contains the Tamra peptide alone (100% response)). Data analysis is handled using the software package Abase XE (Surrey, United Kingdom. The % inhibition values are calculated by the equation: […]

Rat PK = format: in vivo; conditions: oral bioavailability
[2] = target: T2, full length Keap1 protein / full length NRF2 protein (Homo sapiens, UniProt Q14145); test: NRF2-Keap1 TR-FRET assay; format: binding; conditions: full length Keap1-FlagHis and biotin-NRF2
T2 construct: full length NRF2 protein and full length Keap1 protein (Keap1 exists a dimer) are used
T2 sequence (Q14145 whole entry): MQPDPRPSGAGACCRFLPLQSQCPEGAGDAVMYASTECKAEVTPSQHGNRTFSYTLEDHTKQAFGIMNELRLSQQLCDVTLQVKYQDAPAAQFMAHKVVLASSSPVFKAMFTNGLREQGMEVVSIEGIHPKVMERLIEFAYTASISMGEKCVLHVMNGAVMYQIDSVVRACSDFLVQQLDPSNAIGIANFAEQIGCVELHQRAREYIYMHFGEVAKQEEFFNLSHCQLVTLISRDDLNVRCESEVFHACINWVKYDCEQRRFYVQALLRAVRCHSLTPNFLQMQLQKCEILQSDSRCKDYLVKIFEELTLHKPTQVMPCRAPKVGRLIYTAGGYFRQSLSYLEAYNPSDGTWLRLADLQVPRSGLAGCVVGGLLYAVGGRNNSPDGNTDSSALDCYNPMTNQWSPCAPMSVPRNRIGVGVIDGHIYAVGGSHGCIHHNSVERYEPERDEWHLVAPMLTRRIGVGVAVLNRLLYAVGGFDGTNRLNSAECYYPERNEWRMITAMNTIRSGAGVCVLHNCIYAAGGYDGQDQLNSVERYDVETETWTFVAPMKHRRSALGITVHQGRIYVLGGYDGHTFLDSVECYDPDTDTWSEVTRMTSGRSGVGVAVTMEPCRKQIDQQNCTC
From the text: In the NRF2-Keap1 TR-FRET (time-resolved fluorescence resonance energy transfer) assay, full length NRF2 protein and full length Keap1 protein (Keap1 exists a dimer) are used. The assay detects the ability of compound to displace the binding of FlagHis-tagged Keap1 with biotinylated, Avi-tagged NRF2 protein. Biotin-NRF2 binds to streptavidin-europium (a component of the detection mix) and Keap1-FlagHis is recognized by anti-Flag APC (allophycocyanin) antibody (also a component of the detection mix). If binding occurs between the two proteins, there will be an energy transfer from the Eu+3 (donor) at 615 nm to the APC (acceptor) at 665 nm. A potential Keap1 inhibitor will cause a reduction in the TR-FRET signal by interfering with the binding of Keap1 to NRF2.
One hundred nanoliters of 100× compound dose response curves (serial 3-fold dilutions) in DMSO are stamped using an Echo liquid handling system (Labcyte) into 384-well, low volume, black assay plates (Greiner, #784076), with DMSO in columns 6 and 18. The top concentration of compound is located in columns 1 and 13. All reagents are diluted in assay buffer (50 mM Tris, pH 8.0, 5 mM MgCl2, 100 mM NaCl, 0.005% BSA, 1 mM DTT, and 2 mM CHAPS). The BSA, DTT, and CHAPS are added to the assay buffer on the day of assay. […] Plates are spun at 500 rpm for 1 minute, incubated for 1 hour at RT, and read on an Envision plate reader using a 320 nm excitation filter and 615 nm and 665 nm emission filters. Compound response (% inhibition) and potency (pIC50) are calculated based on the ratio of the two emissions (665 nm/615 nm) and then the transformed data is normalized against controls in the assay (control 1=1% DMSO in the presence of NRF2 and Keap1 protein and control 2=1% DMSO in the absence of protein). […] The % inhibition values are calculated from the ratio (transformed) data by the equation: 100−(100*(compound response−average control 2)/(average control 1−average control2)). […]

[3] = system: NQO1 specific activity induction (marker for NRF2 activation) in BEAS-2B cells; test: BEAS-2B NQO1 MTT assay; format: cell-based; conditions: Homo sapiens, 48 hours with compound
From the text: NAD(P)H:quinone oxidoreductase 1 (NQO1), also called DT diaphorase, is a homodimeric FAD-containing enzyme that catalyzes obligatory NAD(P)H-dependent two-electron reductions of quinones and protects cells against the toxic and neoplastic effects of free radicals and reactive oxygen species arising from one-electron reductions. The transcription of NQO1 is finely regulated by NRF2, and thus NQO1 activity is a good marker for NRF2 activation. On day one, frozen BEAS-2B cells (ATCC) are thawed in a water bath, counted, and re-suspended at a concentration of 250,000 cells/mL. Fifty microliters of cells are plated in 384 well black clear-bottomed plates. Plates are incubated at 37° C., 5% CO2 overnight. On day two, plates are centrifuged and 50 nL of compound or controls are added to the cells. Plates are then incubated at 37° C., 5% CO2 for 48 hours. On day four, medium is aspirated from the plate and crude cell lysates are made by adding 13 uL of 1× Cell Signaling Technologies lysis buffer with 1 Complete, Mini, EDTA-free Protease Inhibitor Tablet (Roche) for each 10 mL of lysis buffer. After lysis plates are incubated for 20 minutes at room temperature. Two microliters of lysate are removed for use in Cell Titer Glo assay (Promega) and MTT cocktail is prepared (Prochaska et. al. 1998) for measurement of NQO1 activity. Fifty microliters of MTT cocktail is added to each well, plate is centrifuged, and analyzed on an Envision plate reader (Perkin Elmer) using Absorbance 570 nm label for 30 minutes. Product formation is measured kinetically and the EC50 of NQO1 specific activity induction is calculated by plotting the change in absorbance (Delta OD/min) versus the log of compound concentration followed by 3-parameter fitting.

Dog PK study = format: in vivo; conditions: for Dog PK Fpo: male beagle dogs, nominal 1 mg/kg, oral gavage solution vs 60-minute intravenous infusion, cassette, non-crossover
Experimental: One hundred nanoliters of 100× compound dose response curves (serial 3-fold dilutions) in DMSO are stamped using an Echo liquid handling system (Labcyte) into 384-well, low volume, black assay plates (Greiner, #784076), with DMSO in columns 6 and 18. The top concentration of compound is located in columns 1 and 13. All reagents are diluted in assay buffer (50 mM Tris, pH 8.0, 5 mM MgCl2, 100 mM NaCl, 0.005% BSA, 1 mM DTT, and 2 mM CHAPS). The BSA, DTT, and CHAPS are added to the assay buffer on the day of assay. Using a Multidrop Combi (Thermo Electron Corporation) equipped with a metal tip dispenser, 5 ul of 25 nM Keap1-FlagHis protein is added to all wells of the compound plate, with the exception of the wells in column 18. Wells in column 18 receive 5 ul of assay buffer instead. Plates are centrifuged at 500 rpm for 1 minute, covered with a plate lid, and incubated at 37° C. for 2.25 hours. Plates are then removed from the incubator and allowed to cool to RT for 15 minutes. Five microliters of 50 nM biotin-NRF2 protein is then added to all wells of the plates and the plates are spun at 500 rpm for 1 minute, followed by incubating at 4° C. for 1.25 hours. The plates are then allowed to warm to RT for 15 minutes, followed by the addition of 10 ul of detection mix (1 nM Streptavidin Eu+ W1024 and 5 ug/ml mouse anti-DYKDDDDK IgG conjugated to SureLight APC antibody; both from Columbia Biosciences) to all wells. Plates are spun at 500 rpm for 1 minute, incubated for 1 hour at RT, and read on an Envision plate reader using a 320 nm excitation filter and 615 nm and 665 nm emission filters. Compound response (% inhibition) and potency (pIC50) are calculated based on the ratio of the two emissions (665 nm/615 nm) and then the transformed data is normalized against controls in the assay (control 1=1% DMSO in the presence of NRF2 and Keap1 protein and control 2=1% DMSO in the absence of protein). Data analysis is handled using the software package Abase XE (Surrey, United Kingdom). The % inhibition values are calculated from the ratio (transformed) data by the equation: 100−(100*(compound response−average control 2)/(average control 1−average control2)). For calculation of pIC50s, Abase XE uses a four parameter equation. Dog PK Study
All studies were conducted after review by the GSK Institutional Animal Care and Use Committee and in accordance with the GSK Policy on the Care, Welfare and Treatment of Laboratory Animals. A pre-study health examination that included a physical exam and complete blood count was performed on the animals prior to use on study. A catheter was temporarily placed in a cephalic or saphenous vein for sample collection on the study day. The animals were fasted overnight prior to dosing; food provided after the 4-hour blood sample was collected. The intravenous and oral solution pharmacokinetic studies were carried out using a non-crossover design; a total of four male beagle dogs were used, two per route of administration.
The dose for intravenous administration was prepared as a cassette of up to five test compounds in 20% Cavitron™ and 5% DMSO. The intravenous dose formulation was filtered through a 0.22-micron polytetrafluoroethylene (PTFE) filter prior to administration. The dose for oral solution administration was prepared as a cassette of up to five compounds in 6% Cavitron™ and 5% DMSO and was filtered through a 0.22 micron VWR PTFE filter prior to administration. […]

T1 sequence (Q14145 321-609): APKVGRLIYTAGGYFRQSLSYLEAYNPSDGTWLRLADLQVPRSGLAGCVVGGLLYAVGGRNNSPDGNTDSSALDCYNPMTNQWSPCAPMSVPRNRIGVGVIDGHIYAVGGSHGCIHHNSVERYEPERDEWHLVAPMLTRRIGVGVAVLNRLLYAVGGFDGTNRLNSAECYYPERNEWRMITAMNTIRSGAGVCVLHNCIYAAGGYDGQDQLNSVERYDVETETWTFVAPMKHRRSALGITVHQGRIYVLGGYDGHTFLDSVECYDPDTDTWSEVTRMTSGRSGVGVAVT

| IC50 [1] [nM] | Rat PK Fpo (Rat PK) [%] | IC50 [2] [nM] | difference in the dog oral bioavailability (Dog PK study; compound of the invention versus the S-isomer, dog) [fold] | Dog PK Fpo (Dog PK study) [%] | Dog PK Fpo (Dog PK study; listed as compound of the invention) [%] | Dog PK Fpo (Dog PK study; listed as S-isomer) [%] | Compound | EC50 [3] [nM] |
| --- | --- | --- | --- | --- | --- | --- | --- | --- |
| 63 | 177 | 25 |  |  |  |  | CC[C@@H]1CN(Cc2cc(C(CC(=O)O)c3ccc4c(nnn4C)c3C)ccc2C)Cc2ncccc2O1 (mixture of isomers) [Beta-stereocenter 50/50 mixture, 3-(1,4-Dimethyl-1H-benzo[d][1,2,3]triazol-5-yl)-3-(3-(((R)-2-ethyl-2,3-dihydropyrido[2,3-t][1,4]oxazepin-4(5H)-yl)methyl)-4-methylphenyl)propanoic acid] | 20 |
| 40 | 129 | 16 | ~5 | 52 | 52 |  | CC[C@@H]1CN(Cc2cc([C@@H](CC(=O)O)c3ccc4c(nnn4C)c3C)ccc2C)Cc2ncccc2O1 [Formula (I) R-beta-stereocenter isomer, (R)-3-(1,4-dimethyl-1H-benzo[d][1,2,3]triazol-5-yl)-3-(3-(((R)-2-ethyl-2,3-dihydropyrido[2,3-f][1,4]oxazepin-4(5H)-yl)methyl)-4-methylphenyl)propanoic acid] | 20 |
| 50 | 78 | 12 |  | 11 |  | 11 | CC[C@@H]1CN(Cc2cc([C@H](CC(=O)O)c3ccc4c(nnn4C)c3C)ccc2C)Cc2ncccc2O1 [S-beta-stereocenter isomer, (S)-3-(1,4-dimethyl-1H-benzo[d][1,2,3]triazol-5-yl)-3-(3-(((R)-2-ethyl-2,3-dihydropyrido[2,3-f][1,4]oxazepin-4(5H)-yl)methyl)-4-methylphenyl)propanoic acid] | 16 |
